# Legend:
# [1] = target: T1, human GlyT1c transporter (Homo sapiens, UniProt P48067); assay: Radioligand binding assay using recombinant CHO cell membranes expressing human GlyT1; settings: read-out: radioligand binding Kiapp
# T1 construct: expressed in transfected cells; host or cells: CHO cells (recombinant; membranes)
# T1 sequence (P48067 1-706): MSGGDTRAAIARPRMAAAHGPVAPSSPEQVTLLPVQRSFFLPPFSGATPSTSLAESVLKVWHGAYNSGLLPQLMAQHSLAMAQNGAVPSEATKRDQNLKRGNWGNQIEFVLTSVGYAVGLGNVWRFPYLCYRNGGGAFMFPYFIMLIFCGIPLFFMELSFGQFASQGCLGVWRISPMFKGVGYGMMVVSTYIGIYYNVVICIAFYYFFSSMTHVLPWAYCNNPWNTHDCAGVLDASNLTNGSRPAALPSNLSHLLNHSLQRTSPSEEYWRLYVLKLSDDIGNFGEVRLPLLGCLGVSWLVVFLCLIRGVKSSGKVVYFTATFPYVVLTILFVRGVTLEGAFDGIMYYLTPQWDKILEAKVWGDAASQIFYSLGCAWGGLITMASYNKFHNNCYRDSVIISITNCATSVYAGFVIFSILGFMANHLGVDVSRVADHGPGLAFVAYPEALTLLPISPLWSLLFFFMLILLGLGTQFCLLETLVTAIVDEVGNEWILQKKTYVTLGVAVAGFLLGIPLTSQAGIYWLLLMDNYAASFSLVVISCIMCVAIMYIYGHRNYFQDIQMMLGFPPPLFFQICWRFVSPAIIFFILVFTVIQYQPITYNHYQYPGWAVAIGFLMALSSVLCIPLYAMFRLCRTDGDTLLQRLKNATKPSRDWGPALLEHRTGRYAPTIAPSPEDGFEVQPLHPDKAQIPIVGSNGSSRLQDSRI
# Procedure: 2. Radioligand Binding Assays Using Recombinant CHO Cell Membranes Expressing Human GlyT1:
# Radioligand binding to human GlyT1c transporter-expressing membranes was determined as described in Mezler et al., Molecular Pharmacology 74:1705-1715, 2008.
# [2] = Metabolic stability in human liver microsomes (microsomal clearance); format: in vitro ADME; settings: 0.5 μM test substance, 0.25 mg microsomal protein/ml, pH 7.4, 37° C., NADPH
# Procedure: The metabolic stability of a compound can be measured for example by incubating a solution of this compound with liver microsomes from particular species (for example rat, dog or human) and determining the half-life of the compound under these conditions (RS Obach, Curr Opin Drug Discov Devel. 2001, 4, 36-44). It is possible in this connection to conclude from an observed longer half-life that the metabolic stability of the compound is improved. The stability in the presence of human liver microsomes is of particular interest because it makes it possible to predict the metabolic degradation of the compound in the human liver. Compounds with increased metabolic stability (measured in the liver microsome test) are therefore probably also degraded more slowly in the liver. The slower metabolic degradation in the liver may lead to higher and/or longer-lasting concentrations (active levels) of the compound in the body, so that the elimination half-life of the compounds of the invention is increased. Increased and/or longer-lasting active levels may lead to a better activity of the compound in therapeutic treatment. […]
# Metabolic stability was determined as follows:
# 0.5 μM test substance was preincubated together with human liver microsomes (0.25 mg of microsomal protein/ml) in 0.05 M potassium phosphate buffer of pH 7.4 in microtiter plates at 37° C. for 5 min. […] The samples were frozen until analyzed. The remaining concentration of undegraded test substance was determined by LC MSMS. The half-life (T½) was determined from the gradient of the signal of test substance/unit time plot, allowing to calculate the half-life of the test substance, assuming first order kinetics, from the decrease in the concentration of the compound with time. The microsomal clearance (mCl) was calculated from mCl=ln 2/T½/(content of microsomal protein in mg/ml)×1000 (modified from references: Di, The Society for Biomolecular Screening, 2003, 453-462; Obach, DMD, 1999 vol 27. N 11, 1350-1359).
Ki [1],human mCl [2],SMILES
< 100 nM,<1 µL/min/mg,"Cn1cnc(S(=O)(=O)NCCOc2ccc3c(c2)C(Cc2ccccc2)NC3)c1 (stereo not shown) [Example 5, N-[2-(3-Benzylisoindolin-5-yl)oxyethyl]-1-methyl-1H-imidazole-4-sulfonamide]"
< 100 nM,<10 µL/min/mg,"Cn1cc(S(=O)(=O)NCCOc2ccc3c(c2)C(Cc2ccccc2)NC3)cn1 (stereo not shown) [Example 7, N-[2-(3-Benzylisoindolin-5-yl)oxyethyl]-1-methyl-1H-pyrazole-4-sulfonamide]"
